The structures appear in SMILES notation. Peptide text beside a SMILES is read from it. * marks the point of attachment. Stearoyl = CCCCCCCCCCCCCCCCCC(=O)*

The subject of the series is plasmid DNA. Description: Dye exclusion assay (SYBR Gold) of DNA condensation by lipopeptide. The class given is physicochemical. The following applies: charge ratio 2.5:1; n=3, p<0.05; data not shown. The protocol: To determine the charge ratio at which the LP effectively condenses the DNA, a dye exclusion assay was carried out. In a 96-well black-bottomed plate, plasmid DNA (20 μg/mL) was prepared in 12 mM Tris-HCl (pH 7.4) buffer. To each well containing DNA, 0.05 μL of 10,000× concentrated stock of intercalating SYBR® Gold (Thermo Fisher Scientific) was added and the plate was incubated at room temperature for 15 minutes. The LP was then added to the wells at a series of charge ratios from 0.5:1 to 5:1. A well containing 20 μg/mL of naked DNA and SYBR® Gold was used as a 100% fluorescence intensity standard (ie no LP added). A blank well containing only the SYBR® Gold in buffer was used to subtract from the fluorescent readings of each sample. The plate was incubated at room temperature for 30 minutes for particle formation. The fluorescence (excitation 492 nm, emission 540 nm) of each sample was measured using a Wallac Envision 2102 Multilabel Reader (PerkinElmer, Waltham, Mass., United States of America).

As to `CCCCCCCCCCCCCCCCCC(=O)NC(CS)C(=O)NC(Cc1cnc[nH]1)C(=O)NC(Cc1cnc[nH]1)C(=O)NC(CCCCN)C(=O)NC(CCCCN)C(=O)NC(CCCCN)C(=O)O` (stereo not drawn) [stearoyl-CH2K3, stearoyl-Cys-His-His-Lys-Lys-Lys] (Stearoyl-CHHKKK-OH; configuration not given here), the “Fluorescence of LP/DNA particles after addition of dithiothreitol (DTT) to the LP before complexation” value is “significantly increased the degree of fluorescence”.

These data come from patent US11446393B2, “Non-viral gene delivery agent comprising lipopeptide (LP) compounds” (MONASH UNIVERSITY, priority 2017, dated 2022).
